Measured values: the supplement of paper PMC13380429

Key:
Calu-3 [1] = experiment: relative viability EC50 (midpoint between 100% and the lowest measured viability); higher = less toxic; conditions: 72 h
Caco-2 [2] = experiment: as above; conditions: 72 h
Vero E6 [3] = experiment: as above; conditions: 72 h
Calu-3 [4] = experiment: cell viability relative to DMSO; higher = less toxic; conditions: 72 h
Caco-2 [5] = experiment: as above; conditions: 72 h
U2OS [6] = experiment: as above; conditions: 72 h
HepG2 [7] = experiment: as above; conditions: 72 h
Vero E6 [8] = experiment: as above; conditions: 72 h
[9] = tested on: A549-ACE2 infected with SARS-CoV-2; experiment: cell count relative to DMSO; higher = less toxic; conditions: 24 h
[10] = tested on: A549-ACE2 infected with SARS-CoV-2; experiment: SARS-CoV-2 infection rate relative to DMSO; higher = more infection; conditions: 24 h
[11] = tested on: A549-ACE2 infected with SARS-CoV-2; experiment: morphology score (similarity to uninfected cells); higher = more like uninfected cells; conditions: 24 h
A549-ACE2 [12] = experiment: drug-induced phospholipidosis relative to tamoxifen; higher = more phospholipidosis
Calu-3 [13] = experiment: drug sensitivity score (DSS) for viability; higher = more toxic; extreme values may be limits of the assay; conditions: 72 h
Caco-2 [14] = experiment: as above; conditions: 72 h
U2OS [15] = experiment: as above; conditions: 72 h
HepG2 [16] = experiment: as above; conditions: 72 h
Vero E6 [17] = experiment: as above; conditions: 72 h
A549-ACE2 [18] = experiment: phospholipidosis EC50; higher = less potent phospholipidosis inducer; conditions: 24 h
U2OS [19] = experiment: relative viability EC50 (midpoint between 100% and the lowest measured viability); higher = less toxic; conditions: 72 h
HepG2 [20] = experiment: as above; conditions: 72 h

COc1cc(-c2cc(-c3cccc(O)c3)cnc2N)cc(OC)c1OC
Conditions	drug sensitivity score	relative viability EC50 [µM]
Caco-2 [2]	–	> 10
Caco-2 [14]	0.6	–
Calu-3 [1]	–	> 10
Calu-3 [13]	0	–
HepG2 [16]	1.2	–
U2OS [15]	3.1	–
Vero E6 [3]	–	> 10
Vero E6 [17]	0	–

Conditions	SARS-CoV-2 infection rate, [10] [%]	cell count, [9] [%]	cell viability, Caco-2 [5] [%]	cell viability, Calu-3 [4] [%]	cell viability, HepG2 [7] [%]	cell viability, U2OS [6] [%]	cell viability, Vero E6 [8] [%]	morphology score, [11]
1 nM	–	–	101	87.7	94.1	95.8	99.7	–
10 nM	–	–	103	93.6	94.6	93.7	103	–
100 nM	–	–	105	92.3	93.8	101	97.4	–
0.3 µM	101	100	–	–	–	–	–	0.01
1000 nM	–	–	101	87.6	98.4	91	106	–
3 µM	103	99	–	–	–	–	–	0.39
10000 nM	–	–	79.4	84.6	74.8	64.5	99	–
10 µM	93	105	–	–	–	–	–	0.31
30 µM	91	84	–	–	–	–	–	0.16

drug-induced phospholipidosis [%], A549-ACE2 [12]
Conditions	0.3 µM	0.833333 µM	3.33333 µM	6.66667 µM	10 µM	30 µM
24 h	4	3.08	6.21	12	15.9	47.9
48 h	3.78	1.52	1.5	4.27	9.43	62.2
72 h	4.57	0.15	0.0757	1.61	5.86	65.7

COc1cc(COc2cc(N)c(Cl)cc2C(=O)CCC2CCN(CCNS(C)(=O)=O)CC2)cc(OC)c1
Conditions	drug sensitivity score	phospholipidosis EC50 [µM]	relative viability EC50 [µM]
A549-ACE2 [18]	–	10.8	–
Caco-2 [2]	–	–	> 10
Caco-2 [14]	0	–	–
Calu-3 [1]	–	–	> 10
Calu-3 [13]	0	–	–
HepG2 [16]	2.1	–	–
U2OS [15]	2	–	–
Vero E6 [3]	–	–	2.74
Vero E6 [17]	4.4	–	–

Conditions	SARS-CoV-2 infection rate, [10] [%]	cell count, [9] [%]	cell viability, Caco-2 [5] [%]	cell viability, Calu-3 [4] [%]	cell viability, HepG2 [7] [%]	cell viability, U2OS [6] [%]	cell viability, Vero E6 [8] [%]	morphology score, [11]
1 nM	–	–	107	99	95	98.8	96.8	–
10 nM	–	–	102	106	102	96.2	97.8	–
100 nM	–	–	95.9	94.6	98.8	100	93.3	–
0.1 µM	106	97	–	–	–	–	–	-0.18
0.3 µM	102	102	–	–	–	–	–	-0.13
1000 nM	–	–	110	105	92.5	101	96.1	–
1 µM	93	105	–	–	–	–	–	0.08
3 µM	69	118	–	–	–	–	–	0.56
10000 nM	–	–	88.3	98.6	73.1	58.7	29.4	–

drug-induced phospholipidosis [%], A549-ACE2 [12]
Conditions	0.3 µM	0.833333 µM	3.33333 µM	6.66667 µM	10 µM	30 µM
24 h	7	-3.07	1.58	15.2	28.5	59.3
48 h	8.74	0.25	7.6	19.6	29.2	–
72 h	9.15	2.57	12.6	21.2	34.8	–

Cc1ccccc1N(C)C(=O)c1ccc([S+]([O-])c2nccs2)c([N+](=O)[O-])c1 (stereo not drawn)
Conditions	drug sensitivity score	relative viability EC50 [µM]
Caco-2 [2]	–	1.86
Caco-2 [14]	8.4	–
Calu-3 [1]	–	3.36
Calu-3 [13]	5.2	–
HepG2 [16]	7.3	–
HepG2 [20]	–	2.29
U2OS [15]	12.5	–
U2OS [19]	–	0.805
Vero E6 [3]	–	2.19
Vero E6 [17]	7.5	–

Conditions	SARS-CoV-2 infection rate, [10] [%]	cell count, [9] [%]	cell viability, Caco-2 [5] [%]	cell viability, Calu-3 [4] [%]	cell viability, HepG2 [7] [%]	cell viability, U2OS [6] [%]	cell viability, Vero E6 [8] [%]	morphology score, [11]
1 nM	–	–	96.9	102	106	98.5	103	–
10 nM	–	–	103	97.6	102	99.5	98.2	–
100 nM	–	–	98.5	102	95.1	95.6	100	–
0.1 µM	101	99	–	–	–	–	–	-0.04
0.3 µM	105	104	–	–	–	–	–	0.06
1000 nM	–	–	82.8	103	89.5	41.7	88.1	–
1 µM	92	99	–	–	–	–	–	0.22
3 µM	74	74	–	–	–	–	–	0.22
10000 nM	–	–	0.2	2.3	0.2	0	0.1	–

drug-induced phospholipidosis [%], A549-ACE2 [12]
Conditions	24 h	48 h	72 h
0.3 µM	6.61	5.74	-1.4
0.833333 µM	10.2	5.8	-1.83
